These results are taken from patent US6498158B1, “Il-5 inhibiting 6-azauracil derivatives” (Janssen Pharmaceutica N.V., priority 1998, dated 2002).

In general, inhibition refers to how much of the control response was suppressed. As a reminder, the melting point is the temperature of the solid-liquid transition.

The test system of one data set is IL-5 production. Put plainly: In vitro inhibition of IL-5 production in human blood. The note with it: test dose of 1×10^−6 M, phytohemagglutinin-stimulated human whole blood, ELISA; for inhibition at 1 µM: Homo sapiens, 48 h, read-out: % inh. (percentage inhibition of IL-5 production); for % inh. (percentage inhibition of IL-5 production): 48 hours. Format: cell-based. On the procedure:
In Vitro Inhibition of IL-5 Production in Human Blood
Human Whole Blood Stimulation
Peripheral blood from healthy male donors was drawn into heparinized syringes (12.5 U heparin/ml). Blood samples were three-fold diluted in RMPI 1640 medium (Life Technologies, Belgium) supplemented with 2 mM L-glutamine, 100 U/ml penicillin and […] streptomycin, and […] fractions were distributed in 24-well multidisc plates. Blood samples were preincubated (60 minutes at 37° C.) in a humidified 6% CO2-atmosphere with 100 ml of drug solvent (final concentration 0.02% dimethylsulfoxide in RPMI 1640) or with 100 ml of an appropriate dose of test compound before being stimulated by the addition of […] of phytohemagglutinin HA17 (Murex, UK) at a final concentration of […]. After 48 hours, cell-free supernatant fluids were collected by centrifugation and stored at −70° C. until tested for the presence of IL-5.
IL-5 measurements were conducted as described in Van Wauwe et al. (1996, Inflamm Res, 45, 357-363) on page 358 using ELISA.
Table 3 lists the percentage inhibition of IL-5 production (column “% inh”) at a test dose of 1×10^−6 M for the compounds of the present invention.
(In an ELISA, binding on a coated surface is turned into a signal by an enzyme label.)

As to `N#CC1(c2c(Cl)cc(-n3ncc(=O)[nH]c3=O)cc2Cl)CCc2ccccc21` (centres unmarked) [Compound 1], the inhibition at 1 µM in the data set with IL-5 production was 70.5%.

For the compound `CCOC(=O)C1(c2c(Cl)cc(-n3ncc(=O)[nH]c3=O)cc2Cl)CCc2ccccc21` (centres unmarked) [Compound 2], the melting point is 88 °C. The inhibition at 1 µM with IL-5 production was found to be 63%.

In the case of `Cc1sc(C2(c3c(Cl)cc(-n4ncc(=O)[nH]c4=O)cc3Cl)CCc3ccccc32)nc1-c1ccccc1` (centres unmarked) [Compound 4], the melting point came to 237 °C. Further, in the data set with IL-5 production, the inhibition at 1 µM stood at 89.3%.

`Cc1sc(C2(c3c(Cl)cc(-n4ncc(=O)[nH]c4=O)cc3Cl)CCc3ccccc32)nc1-c1ccccc1` (centres unmarked) [Compound 5] gave a melting point of 122 °C. In the data set on IL-5 production, the “% inh. (percentage inhibition of IL-5 production)” value came to 88%.

On to `Cc1sc(C2(c3c(Cl)cc(-n4ncc(=O)[nH]c4=O)cc3Cl)CCc3ccccc32)nc1-c1ccccc1` (centres unmarked) [Compound 6], for which the “% inh. (percentage inhibition of IL-5 production)” value with IL-5 production was 91%.
